This is an account of results in patent US12187723B2 (BRISTOL-MYERS SQUIBB COMPANY, priority 2019, dated 2025).

Bounds are passed on as bounds.

This assay concerns the target T1, human TLR9 (Homo sapiens, UniProt Q9NR96).
T1 construct: host or cells: HEK-Blue cells
T1 sequence (Q9NR96 26-1032): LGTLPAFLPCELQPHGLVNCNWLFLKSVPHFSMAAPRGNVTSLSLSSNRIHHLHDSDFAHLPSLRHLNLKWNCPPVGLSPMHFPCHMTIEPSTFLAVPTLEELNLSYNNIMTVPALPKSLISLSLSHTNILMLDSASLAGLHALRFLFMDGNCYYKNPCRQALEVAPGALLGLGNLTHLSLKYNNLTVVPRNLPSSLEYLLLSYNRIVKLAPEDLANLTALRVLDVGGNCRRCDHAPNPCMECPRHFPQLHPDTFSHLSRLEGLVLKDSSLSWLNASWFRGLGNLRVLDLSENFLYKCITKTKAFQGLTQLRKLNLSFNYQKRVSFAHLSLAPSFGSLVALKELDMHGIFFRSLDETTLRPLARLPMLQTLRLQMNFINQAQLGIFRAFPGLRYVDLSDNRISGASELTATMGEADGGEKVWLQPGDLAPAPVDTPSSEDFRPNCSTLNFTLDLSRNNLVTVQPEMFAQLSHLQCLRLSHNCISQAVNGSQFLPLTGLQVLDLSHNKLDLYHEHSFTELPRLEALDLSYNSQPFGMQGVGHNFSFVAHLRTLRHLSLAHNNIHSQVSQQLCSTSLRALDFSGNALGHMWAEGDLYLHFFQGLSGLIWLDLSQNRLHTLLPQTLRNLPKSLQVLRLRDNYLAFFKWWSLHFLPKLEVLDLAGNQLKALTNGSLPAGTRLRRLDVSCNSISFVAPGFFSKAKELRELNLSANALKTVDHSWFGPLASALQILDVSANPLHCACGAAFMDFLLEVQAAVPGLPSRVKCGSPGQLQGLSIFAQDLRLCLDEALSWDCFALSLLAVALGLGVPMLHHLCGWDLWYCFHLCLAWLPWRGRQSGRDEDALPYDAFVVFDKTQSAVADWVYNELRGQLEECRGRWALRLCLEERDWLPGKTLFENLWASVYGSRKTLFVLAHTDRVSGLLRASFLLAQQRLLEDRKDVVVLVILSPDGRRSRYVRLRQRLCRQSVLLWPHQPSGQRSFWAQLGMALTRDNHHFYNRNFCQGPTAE
Briefly: TLR9 inhibition reporter assay (HEK-Blue SEAP). Conditions: HEK-Blue cells overexpressing human TLR9, ODN2006 5 nM, 22 hour incubation. The class given is cell-based. The method, then:
TLR7/8/9 Inhibition Reporter Assays
HEK-Blue™-cells (Invivogen) overexpressing human TLR7, TLR8 or TLR9 receptors were used for screening inhibitors of these receptors using an inducible SEAP (secreted embryonic alkaline phosphatase) reporter gene under the control of the IFN-β minimal promoter fused to five NF-κB and AP-1-binding sites. Briefly, cells are seeded into Greiner 384 well plates (15000 cells per well for TLR7, 20,000 for TLR8 and 25,000 for TLR9) and then treated with test compounds in DMSO to yield a final dose response concentration range of 0.05 nM-50 μM. After a 30 minute compound pre-treatment at room temperature, the cells are then stimulated with a TLR7 ligand (gardiquimod at a final concentration of 7.5 μM), TLR8 ligand (R848 at a final concentration of 15.9 μM) or TLR9 ligand (ODN2006 at a final concentration of 5 nM) to activate NF-κB and AP-1 which induce the production of SEAP. After a 22 hour incubation at 37° C., 5% CO2, SEAP levels are determined with the addition of HEK-Blue™ Detection reagent (Invivogen), a cell culture medium that allows for detection of SEAP, according to manufacturer's specifications. The percent inhibition is determined as the % reduction in the HEK-Blue signal present in wells treated with agonist plus DMSO alone compared to wells treated with a known inhibitor.
For orientation: IC50 means the midpoint of a concentration-inhibition curve. High values mean weaker potency, low ones greater potency. Regarding `CCN1CCC[C@@H](n2c(=O)[nH]c3cc(-c4cc(OC)c5ncnn5c4)c(C(C)C)cc32)C1` [Example 138, (R)-1-(1-ethylpiperidin-3-yl)-6-isopropyl-5-(8-methoxy-[1,2,4]triazolo[1,5-a]pyridin-6-yl)-1,3-dihydro-2H-benzo[d]imidazol-2-one], the IC50 came out at 17.9 µM. In turn, `COc1cc(-c2cc3[nH]c(=O)n([C@@H]4CCCN(CC5CCOCC5)C4)c3cc2C(C)C)cn2ncnc12` [Example 139, (R)-6-isopropyl-5-(8-methoxy-[1,2,4]triazolo[1,5-a]pyridin-6-yl)-1-(1-((tetrahydro-2H-pyran-4-yl)methyl)piperidin-3-yl)-1,3-dihydro-2H-benzo[d]imidazol-2-one] gave an IC50 of 7.81 µM. With `COc1cc(-c2cc3[nH]c(=O)n(C4CCCN(C(=O)CN(C)C)C4)c3cc2C)cn2ncnc12` (stereo not drawn) [Example 105, 1-(1-(dimethylglycyl)piperidin-3-yl)-5-(8-methoxy-[1,2,4]triazolo[1,5-a]pyridin-6-yl)-6-methyl-1,3-dihydro-2H-benzo[d]imidazol-2-one], the IC50 was 7.94 µM.

Take `COc1cc(-c2cc3[nH]c(=O)n(C4CCN(C5CCOCC5)CC4)c3cc2C(C)C)cn2ncnc12` [Example 158, 6-isopropyl-5-(8-methoxy-[1,2,4]triazolo[1,5-a]pyridin-6-yl)-1-(1-(tetrahydro-2H-pyran-4-yl)piperidin-4-yl)-1,3-dihydro-2H-benzo[d]imidazol-2-one]: the 50% inhibitory concentration (IC50) was determined as 21.4 µM. Molecule `Cc1cc(-c2ccc3c(c2)[nH]c(=O)n3C2CCN(C(C)C)CC2)cn2ncnc12` [Example 5, 1-(1-isopropylpiperidin-4-yl)-5-(8-methyl-[1,2,4]triazolo[1,5-a]pyridin-6-yl)-1,3-dihydro-2H-benzo[d]imidazol-2-one] gave an IC50 of 2.75 µM.

As for `COc1cc(-c2cc3[nH]c(=O)n([C@H]4CCCN(CC5CCOC5)C4)c3cc2C(C)C)cn2ncnc12` (stereo partly drawn) [Example 126, 6-isopropyl-5-(8-methoxy-[1,2,4]triazolo[1,5-a]pyridin-6-yl)-1-((3S)-1-((tetrahydrofuran-3-yl)methyl)piperidin-3-yl)-1,3-dihydro-2H-benzo[d]imidazol-2-one], the IC50 stood at 27.8 µM. On to `COc1cc(-c2cc3[nH]c(=O)n([C@H]4CCCN(CC5CCC5)C4)c3cc2C(C)C)cn2ncnc12` [Example 133, (S)-1-(1-(cyclobutylmethyl)piperidin-3-yl)-6-isopropyl-5-(8-methoxy-[1,2,4]triazolo[1,5-a]pyridin-6-yl)-1,3-dihydro-2H-benzo[d]imidazol-2-one], for which inhibition was half-maximal at 7.14 µM (IC50). In the case of `COc1cc(-c2cc3[nH]c(=O)n(C4CCN(C5COC5)CC4)c3cc2C(C)C)cn2ncnc12` [Example 157, 6-isopropyl-5-(8-methoxy-[1,2,4]triazolo[1,5-a]pyridin-6-yl)-1-(1-(oxetan-3-yl)piperidin-4-yl)-1,3-dihydro-2H-benzo[d]imidazol-2-one], the IC50 is over 50 µM.

For the molecule `CCCN1CCC[C@@H](n2c(=O)[nH]c3cc(-c4cc(OC)c5ncnn5c4)c(C(C)C)cc32)C1` [Example 134, (R)-6-isopropyl-5-(8-methoxy-[1,2,4]triazolo[1,5-a]pyridin-6-yl)-1-(1-propylpiperidin-3-yl)-1,3-dihydro-2H-benzo[d]imidazol-2-one], the half-inhibitory concentration (IC50) is 9.33 µM. For `COc1cc(-c2cc3[nH]c(=O)n([C@@H]4CCCN(C5COC5)C4)c3cc2C(C)C)cn2ncnc12` [Example 135, (R)-6-isopropyl-5-(8-methoxy-[1,2,4]triazolo[1,5-a]pyridin-6-yl)-1-(1-(oxetan-3-yl)piperidin-3-yl)-1,3-dihydro-2H-benzo[d]imidazol-2-one] the value was over 50 µM; for `COc1cc(-c2cc3[nH]c(=O)n([C@@H]4CCCN(CC(C)(C)C)C4)c3cc2C(C)C)cn2ncnc12` [Example 153, (R)-6-isopropyl-5-(8-methoxy-[1,2,4]triazolo[1,5-a]pyridin-6-yl)-1-(1-neopentylpiperidin-3-yl)-1,3-dihydro-2H-benzo[d]imidazol-2-one], 13.1 µM.

In turn, `Cc1cc(-c2cc(C)c3ncnn3c2)cc2[nH]c(=O)n(C3CCN(CC(=O)N(C)C)CC3)c12` [Example 109, N,N-dimethyl-2-(4-(7-methyl-5-(8-methyl-[1,2,4]triazolo[1,5-a]pyridin-6-yl)-2-oxo-2,3-dihydro-1H-benzo[d]imidazol-1-yl)piperidin-1-yl)acetamide] showed an IC50 of 14.3 µM. As for `CCC(CC)CN1CCC[C@@H](n2c(=O)[nH]c3cc(-c4cc(OC)c5ncnn5c4)c(C(C)C)cc32)C1` [Example 148, (R)-1-(1-(2-ethylbutyl)piperidin-3-yl)-6-isopropyl-5-(8-methoxy-[1,2,4]triazolo[1,5-a]pyridin-6-yl)-1,3-dihydro-2H-benzo[d]imidazol-2-one], 9.61 µM corresponded to half-maximal inhibition (IC50). The molecule `CCC(CC)CN1CCC[C@@H](n2c(=O)[nH]c3cc(-c4cc(OC)c5ncnn5c4)c(C(F)(F)F)cc32)C1` [Example 117, (R)-1-(1-(2-ethylbutyl)piperidin-3-yl)-5-(8-methoxy-[1,2,4]triazolo[1,5-a]pyridin-6-yl)-6-(trifluoromethyl)-1,3-dihydro-2H-benzo[d]imidazol-2-one] had a half-maximal inhibitory concentration (IC50) of 11.8 µM. On to `Cc1cc2c(cc1-c1cc(C)c3ncnn3c1)[nH]c(=O)n2[C@@H]1CCCN(CC#N)C1` [Example 96, (R)-2-(3-(6-methyl-5-(8-methyl-[1,2,4]triazolo[1,5-a]pyridin-6-yl)-2-oxo-2,3-dihydro-1H-benzo[d]imidazol-1-yl)piperidin-1-yl)acetonitrile], for which the half-inhibitory concentration (IC50) was 8.64 µM.

Take `COc1cc(-c2cc3[nH]c(=O)n([C@H]4CCCN(C5CCC5)C4)c3cc2C(C)C)cn2ncnc12` [Example 122, (S)-1-(1-cyclobutylpiperidin-3-yl)-6-isopropyl-5-(8-methoxy-[1,2,4]triazolo[1,5-a]pyridin-6-yl)-1,3-dihydro-2H-benzo[d]imidazol-2-one]: the IC50 stood at 12.7 µM. To `COc1cc(-c2cc3[nH]c(=O)n(C4CCN(CC5CC5)CC4)c3cc2C(C)C)cn2ncnc12` [Example 161, 1-(1-(cyclopropylmethyl)piperidin-4-yl)-6-isopropyl-5-(8-methoxy-[1,2,4]triazolo[1,5-a]pyridin-6-yl)-1,3-dihydro-2H-benzo[d]imidazol-2-one] belongs 11.3 µM. Turning to `Cc1cc2c(cc1-c1cc(C)c3ncnn3c1)[nH]c(=O)n2[C@@H]1CCCN(C(=O)CN(C)C)C1` [Example 104, (R)-1-(1-(dimethylglycyl)piperidin-3-yl)-6-methyl-5-(8-methyl-[1,2,4]triazolo[1,5-a]pyridin-6-yl)-1,3-dihydro-2H-benzo[d]imidazol-2-one], the IC50 was determined as 1.45 µM. Take `Cc1cc(-c2cc(C)c3ncnn3c2)cc2[nH]c(=O)n(C3CCN(C(C)C)CC3)c12` [Example 107, 1-(1-isopropylpiperidin-4-yl)-7-methyl-5-(8-methyl-[1,2,4]triazolo[1,5-a]pyridin-6-yl)-1,3-dihydro-2H-benzo[d]imidazol-2-one]: the IC50 is 2.99 µM.

The molecule `CCN1CCC[C@@H](n2c(=O)[nH]c3cc(-c4cc(OC)c5ncnn5c4)c(C(F)(F)F)cc32)C1` [Example 110, (R)-1-(1-ethylpiperidin-3-yl)-5-(8-methoxy-[1,2,4]triazolo[1,5-a]pyridin-6-yl)-6-(trifluoromethyl)-1,3-dihydro-2H-benzo[d]imidazol-2-one] showed an IC50 of 7.82 µM. To `COc1cc(-c2cc3[nH]c(=O)n(C4CCN(C5CCOC5)CC4)c3cc2C(C)C)cn2ncnc12` (stereo not drawn) [Example 162, 6-isopropyl-5-(8-methoxy-[1,2,4]triazolo[1,5-a]pyridin-6-yl)-1-(1-(tetrahydrofuran-3-yl)piperidin-4-yl)-1,3-dihydro-2H-benzo[d]imidazol-2-one] belongs over 50 µM.
